Reference: ChEMBL document CHEMBL4732202, “Identification and Profiling of a Novel Diazaspiro[3.4]octane Chemical Series Active against Multiple Stages of the Human Malaria Parasite Plasmodium falciparum and Optimization Efforts” (J Med Chem, 2021)

Legend:
[1] = Unbound AUC in Balb/c mouse at 20 mg/kg, po measured upto 24 hrs by LC-MS/MS analysis; type: ADME, organism-based; details: in vivo
[2] = Volume of distribution in Balb/c mouse at 3 mg/kg, iv measured upto 24 hrs by LC-MS/MS analysis; type: ADME, organism-based; details: in vivo
[3] = Blood clearance in Balb/c mouse at 3 mg/kg, iv measured upto 24 hrs by LC-MS/MS analysis; type: ADME, organism-based; details: whole blood
[4] = Unbound average drug concentration in Balb/c mouse at 20 mg/kg, po measured upto 24 hrs by LC-MS/MS analysis; type: ADME, organism-based; details: in vivo
[5] = AUC (0 to infinity) in Balb/c mouse at 3 mg/kg, iv measured upto 24 hrs by LC-MS/MS analysis; type: ADME, organism-based; parameters: route intravenous, dose 3 mg/kg, time <=24; details: in vivo
[6] = Half life in Balb/c mouse at 3 mg/kg, iv measured upto 24 hrs by LC-MS/MS analysis; type: ADME, organism-based; details: in vivo
[7] = Oral bioavailability in Balb/c mouse at 10 mg/kg measured upto 24 hrs by LC-MS/MS analysis; type: ADME, organism-based; details: in vivo
[8] = Intrinsic clearance in Balb/c mouse at 3 mg/kg, iv measured upto 24 hrs by LC-MS/MS analysis; type: ADME, organism-based; details: in vivo
[9] = Half life in rat liver microsomes at 0.1 uM in presence or absence of NADPH by LC-MS/MS analysis; type: ADME, Microsome
[10] = Half life in human liver microsomes at 0.1 uM in presence or absence of NADPH by LC-MS/MS analysis; type: ADME, Microsome
[11] = Half life in mouse liver microsomes at 0.1 uM in presence or absence of NADPH by LC-MS/MS analysis; type: ADME, Microsome

Compound | half-life at 0.1 µM [9] [min] | half-life at 0.1 µM [10] [min] | half-life at 0.1 µM [11] [min] | other results
O=C(Cc1ccc(O)cc1)N1CC(CNc2ccccc2)C2(C1)CN(c1ccc(F)cc1)C2 (stereo not drawn) | – | – | – | fAUC [1]: 3 µmol·min/L; Vd [2]: 22 L/kg; clearance [3]: 63 mL/min/kg; f(Cave) [4]: 2 nM; AUC(0-inf) [5]: 1.82 µM·h; half-life [6]: 240 min; bioavailability [7]: 10%; CL [8]: 5042 mL/min/kg
N[C@H](Cc1ccc(O)cc1)C(=O)N1CC(CNc2ccc(F)cc2)C2(C1)CN(c1cc(F)cc(F)c1)C2 (mixture of isomers) | 24 | 34 | 20 | –
N[C@@H](C(=O)N1CC(CNc2ccc(F)cc2)C2(C1)CN(c1cc(F)cc(F)c1)C2)c1ccc(O)cc1 (mixture of isomers) | 44 | 25 | 48 | –
Nc1ccc(C[C@@H](N)C(=O)N2CC(CNc3ccc(F)cc3)C3(C2)CN(c2cc(F)cc(F)c2)C3)cc1 (mixture of isomers) | 150 | 150 | 150 | fAUC [1]: 2 µmol·min/L; Vd [2]: 20.7 L/kg; clearance [3]: 40.6 mL/min/kg; Cave [4]: 1 nM; AUC(0-inf) [5]: 2.48 µM·h; half-life [6]: 342 min; bioavailability [7]: 8%; CL [8]: 2959 mL/min/kg
C[C@@H](C(=O)N1CC(CNc2ccc(F)cc2)C2(C1)CN(c1cc(F)cc(F)c1)C2)c1ccc(O)cc1 (mixture of isomers) | 6 | 6 | 7 | –
O=C([C@@H](O)c1ccc(O)cc1)N1CC(CNc2ccc(F)cc2)C2(C1)CN(c1cc(F)cc(F)c1)C2 (mixture of isomers) | 6.7 | 9 | 11 | –
C[C@H](C(=O)N1CC(CNc2ccc(F)cc2)C2(C1)CN(c1cc(F)cc(F)c1)C2)c1ccc(O)cc1 (mixture of isomers) | 4 | 6 | 10 | –
O=C([C@H](O)c1ccc(O)cc1)N1CC(CNc2ccc(F)cc2)C2(C1)CN(c1cc(F)cc(F)c1)C2 (mixture of isomers) | 7.9 | 6.8 | 4.4 | –
N[C@H](C(=O)N1CC(CNc2ccc(F)cc2)C2(C1)CN(c1cc(F)cc(F)c1)C2)c1ccc(O)cc1 (mixture of isomers; form 1) | 150 | 150 | 150 | fAUC [1]: 3 µmol·min/L; Vd [2]: 23.5 L/kg; clearance [3]: 33.7 mL/min/kg; f(Cave) [4]: 2 nM; AUC(0-inf) [5]: 3 µM·h; half-life [6]: 480 min; bioavailability [7]: < 1%; CL [8]: 2155 mL/min/kg
O=C(Cc1cc(F)c(O)c(F)c1)N1CC(CNc2ccc(F)cc2)C2(C1)CN(c1ccc(F)cc1)C2 (racemic) | 40 | 46 | 42 | –
O=C(CN1CCC(O)CC1)N1CC(CNc2ccc(F)cc2)C2(C1)CN(c1ccc(F)cc1)C2 (racemic) | 150 | 150 | 150 | –
O=C(Cc1ccc(O)c(F)c1)N1CC(CNc2ccc(F)cc2)C2(C1)CN(c1ccc(F)cc1)C2 (racemic) | 14 | 17 | 13 | –
O=C(Cc1ccc(O)c(Cl)c1)N1CC(CNc2ccc(F)cc2)C2(C1)CN(c1ccc(F)cc1)C2 (racemic) | 25 | 22 | 16 | –
O=C(N1CC(CNc2ccc(F)cc2)C2(C1)CN(c1cc(F)cc(F)c1)C2)C(F)(F)c1ccc(O)c(C(F)(F)F)c1 (racemic) | 7 | 18 | 16 | –
O=C(Cc1ncc(O)cn1)N1CC(CNc2ccc(F)cc2)C2(C1)CN(c1cc(F)cc(F)c1)C2 (racemic) | 68 | 64 | 67 | –
N#Cc1cc(CC(=O)N2CC(CNc3ccc(F)cc3)C3(C2)CN(c2cc(F)cc(F)c2)C3)ccc1O (racemic) | 31 | 27 | 70 | –
O=C(N1CC(CNc2ccc(F)cc2)C2(C1)CN(c1cc(F)cc(F)c1)C2)C(F)(F)c1ccc(O)cc1 (racemic) | 11 | 23 | 12 | –
NC(=O)c1cc(CC(=O)N2CC(CNc3ccc(F)cc3)C3(C2)CN(c2cc(F)cc(F)c2)C3)ccc1O (racemic) | 8 | 11 | 21 | –
O=C(Cc1cc[n+]([O-])cc1)N1CC(CNc2ccc(F)cc2)C2(C1)CN(c1cc(F)cc(F)c1)C2 (racemic) | 150 | 150 | 150 | –
O=C(Cc1ccc(C(F)F)cc1)N1CC(CNc2ccc(F)cc2)C2(C1)CN(c1ccc(F)cc1)C2 (racemic) | 7.6 | 7.6 | 6.6 | –
O=C(Cc1ccnc(O)c1)N1CC(CNc2ccc(F)cc2)C2(C1)CN(c1cc(F)cc(F)c1)C2 (racemic) | 20 | 12 | 17 | –
O=C(Cc1ccc(O)c(C(F)(F)F)c1)N1CC(CNc2ccc(F)cc2)C2(C1)CN(c1cc(F)cc(F)c1)C2 (racemic) | 16 | 15 | 24 | –
O=C(Cc1ccc(O)nc1)N1CC(CNc2ccc(F)cc2)C2(C1)CN(c1cc(F)cc(F)c1)C2 (racemic) | 52 | 21 | 17 | –
O=C(Cc1ccc(O)cn1)N1CC(CNc2ccc(F)cc2)C2(C1)CN(c1cc(F)cc(F)c1)C2 (racemic) | 12 | 12 | 11 | –
CC1(C)c2nc(-c3ccc(F)cc3)c(Nc3ccc(F)cc3)n2CCN1C(=O)CN [GANAPLACIDE] | – | – | – | fAUC [1]: 65.4 µmol·min/L; clearance [3]: 37.8 mL/min/kg; f(Cave) [4]: 45 nM; bioavailability [7]: 74%; CL [8]: 548 mL/min/kg
CS(=O)(=O)c1ccc(-c2cnc(N)c(-c3ccc(C(F)(F)F)nc3)c2)cc1 [MMV-048] | – | – | – | fAUC [1]: 4452 µmol·min/L; clearance [3]: 3 mL/min/kg; f(Cave) [4]: 3092 nM; bioavailability [7]: > 100%; CL [8]: 19 mL/min/kg
